From ChEMBL document CHEMBL4477252, “Optimization of microtubule affinity regulating kinase (MARK) inhibitors with improved physical properties” (Bioorg Med Chem Lett, 2016)

Key:
[1] = target: MAP/microtubule affinity-regulating kinase 3 (Homo sapiens, UniProt P27448); assay: Inhibition of full-length recombinant human GST-tagged MARK3 expressed in baculovirus expression system using biotinylated-Cdc25C peptide substrate measured after 2 hrs by HTRF assay
Misshapen-like kinase 1 = Misshapen-like kinase 1 (Homo sapiens, UniProt Q8N4C8); assay: Inhibition of recombinant human His-tagged MINK1 catalytic domain expressed in baculovirus expression system by Z'-LYTE assay
[2] = target: Mitogen-activated protein kinase 1 (Homo sapiens, UniProt P28482); assay: Inhibition of full-length recombinant human GST-tagged MAPK1 expressed in Escherichia coli by Z'-LYTE assay
Sequence of Mitogen-activated protein kinase 1 (P28482 whole entry, the tested form may be a part): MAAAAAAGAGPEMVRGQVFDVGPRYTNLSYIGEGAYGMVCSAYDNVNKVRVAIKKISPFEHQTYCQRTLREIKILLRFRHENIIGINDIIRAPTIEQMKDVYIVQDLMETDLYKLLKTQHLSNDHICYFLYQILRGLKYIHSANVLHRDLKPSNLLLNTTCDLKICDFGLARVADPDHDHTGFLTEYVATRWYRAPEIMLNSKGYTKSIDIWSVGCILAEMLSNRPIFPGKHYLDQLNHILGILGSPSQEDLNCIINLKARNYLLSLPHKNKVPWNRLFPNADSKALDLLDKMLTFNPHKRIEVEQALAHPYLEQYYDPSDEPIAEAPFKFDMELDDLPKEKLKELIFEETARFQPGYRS

[3] = target: T1, Serine/threonine-protein kinase Sgk1 (Homo sapiens, UniProt O00141); assay: Inhibition of recombinant human GST-tagged SGK catalytic domain expressed in baculovirus expression system by Z'-LYTE assay
T1 sequence (O00141 whole entry): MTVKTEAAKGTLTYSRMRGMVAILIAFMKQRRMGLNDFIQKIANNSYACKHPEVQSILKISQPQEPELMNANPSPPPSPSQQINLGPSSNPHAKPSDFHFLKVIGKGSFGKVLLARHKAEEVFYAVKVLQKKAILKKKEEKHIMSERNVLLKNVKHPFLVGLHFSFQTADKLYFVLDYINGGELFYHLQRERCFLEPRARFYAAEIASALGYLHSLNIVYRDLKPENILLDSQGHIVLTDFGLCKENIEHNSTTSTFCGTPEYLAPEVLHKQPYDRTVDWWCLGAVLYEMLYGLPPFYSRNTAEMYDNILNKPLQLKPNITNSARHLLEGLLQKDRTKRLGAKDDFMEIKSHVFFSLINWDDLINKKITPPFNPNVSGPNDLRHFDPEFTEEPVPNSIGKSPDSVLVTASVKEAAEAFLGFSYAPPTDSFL

[4] = target: Rho-associated protein kinase 1 (Homo sapiens, UniProt Q13464); assay: Inhibition of recombinant human GST-tagged ROCK1 catalytic domain expressed in baculovirus expression system by Z'-LYTE assay
[5] = target: Fibroblast growth factor receptor 2 (Homo sapiens, UniProt P21802); assay: Inhibition of recombinant human His-tagged cytoplasmic FGFR2 expressed in baculovirus expression system by Z'-LYTE assay
[6] = target: Mast/stem cell growth factor receptor Kit (Homo sapiens, UniProt P10721); assay: Inhibition of recombinant human His-tagged cytoplasmic KIT expressed in baculovirus expression system by Z'-LYTE assay
[7] = target: Death-associated protein kinase 1 (Homo sapiens, UniProt P53355); assay: Inhibition of recombinant human GST-tagged DAPK1 catalytic domain expressed in baculovirus expression system by Adapta assay
Sequence of Death-associated protein kinase 1 (P53355 whole entry, the tested form may be a part): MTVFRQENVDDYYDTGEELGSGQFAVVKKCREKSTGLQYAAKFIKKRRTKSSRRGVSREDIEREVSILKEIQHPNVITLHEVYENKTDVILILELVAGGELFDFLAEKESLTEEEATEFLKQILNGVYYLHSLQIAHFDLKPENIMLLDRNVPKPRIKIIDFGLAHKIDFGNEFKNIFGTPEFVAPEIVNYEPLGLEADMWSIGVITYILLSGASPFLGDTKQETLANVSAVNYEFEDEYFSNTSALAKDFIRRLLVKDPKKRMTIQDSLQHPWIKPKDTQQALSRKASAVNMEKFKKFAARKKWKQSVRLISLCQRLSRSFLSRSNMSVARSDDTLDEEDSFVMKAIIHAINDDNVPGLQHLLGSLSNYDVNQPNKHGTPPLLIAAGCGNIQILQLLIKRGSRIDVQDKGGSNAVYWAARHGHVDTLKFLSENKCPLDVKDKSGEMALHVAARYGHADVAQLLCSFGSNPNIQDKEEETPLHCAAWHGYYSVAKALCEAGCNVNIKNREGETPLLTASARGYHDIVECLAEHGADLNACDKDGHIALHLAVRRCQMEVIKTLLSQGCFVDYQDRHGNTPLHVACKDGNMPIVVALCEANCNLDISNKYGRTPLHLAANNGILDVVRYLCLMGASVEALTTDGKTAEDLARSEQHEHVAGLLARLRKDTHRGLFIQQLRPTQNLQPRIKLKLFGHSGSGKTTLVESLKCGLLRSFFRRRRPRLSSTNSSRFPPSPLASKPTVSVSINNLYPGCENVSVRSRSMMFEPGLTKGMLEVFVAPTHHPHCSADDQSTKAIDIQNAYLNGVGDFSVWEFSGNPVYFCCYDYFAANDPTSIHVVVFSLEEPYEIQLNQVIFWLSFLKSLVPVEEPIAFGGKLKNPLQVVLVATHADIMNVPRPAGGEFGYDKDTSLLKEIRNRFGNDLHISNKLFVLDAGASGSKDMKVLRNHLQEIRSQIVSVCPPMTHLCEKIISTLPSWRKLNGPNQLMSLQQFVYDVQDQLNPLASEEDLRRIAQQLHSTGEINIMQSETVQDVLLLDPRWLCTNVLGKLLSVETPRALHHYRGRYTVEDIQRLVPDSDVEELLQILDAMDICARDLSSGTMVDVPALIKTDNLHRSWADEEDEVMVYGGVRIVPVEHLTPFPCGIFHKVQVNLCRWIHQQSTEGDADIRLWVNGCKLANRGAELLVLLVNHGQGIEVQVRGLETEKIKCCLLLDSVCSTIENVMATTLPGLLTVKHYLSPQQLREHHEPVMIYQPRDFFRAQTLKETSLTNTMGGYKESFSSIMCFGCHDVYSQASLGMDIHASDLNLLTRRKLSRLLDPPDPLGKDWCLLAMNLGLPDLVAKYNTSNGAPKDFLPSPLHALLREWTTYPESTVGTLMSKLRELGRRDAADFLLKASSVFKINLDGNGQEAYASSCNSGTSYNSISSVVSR

[8] = target: Rho-associated protein kinase 2 (Homo sapiens, UniProt O75116); assay: Inhibition of recombinant human N-terminal GST-tagged ROCK2 (1 to 552 residues) catalytic domain expressed in baculovirus expression system by Z'-LYTE assay
Ephrin type-B receptor 2 = target: T2, Ephrin type-B receptor 2 (Homo sapiens, UniProt P29323); assay: Inhibition of recombinant human GST-tagged cytoplasmic EPHB2 expressed in baculovirus expression system by Z'-LYTE assay
T2 sequence (P29323 whole entry): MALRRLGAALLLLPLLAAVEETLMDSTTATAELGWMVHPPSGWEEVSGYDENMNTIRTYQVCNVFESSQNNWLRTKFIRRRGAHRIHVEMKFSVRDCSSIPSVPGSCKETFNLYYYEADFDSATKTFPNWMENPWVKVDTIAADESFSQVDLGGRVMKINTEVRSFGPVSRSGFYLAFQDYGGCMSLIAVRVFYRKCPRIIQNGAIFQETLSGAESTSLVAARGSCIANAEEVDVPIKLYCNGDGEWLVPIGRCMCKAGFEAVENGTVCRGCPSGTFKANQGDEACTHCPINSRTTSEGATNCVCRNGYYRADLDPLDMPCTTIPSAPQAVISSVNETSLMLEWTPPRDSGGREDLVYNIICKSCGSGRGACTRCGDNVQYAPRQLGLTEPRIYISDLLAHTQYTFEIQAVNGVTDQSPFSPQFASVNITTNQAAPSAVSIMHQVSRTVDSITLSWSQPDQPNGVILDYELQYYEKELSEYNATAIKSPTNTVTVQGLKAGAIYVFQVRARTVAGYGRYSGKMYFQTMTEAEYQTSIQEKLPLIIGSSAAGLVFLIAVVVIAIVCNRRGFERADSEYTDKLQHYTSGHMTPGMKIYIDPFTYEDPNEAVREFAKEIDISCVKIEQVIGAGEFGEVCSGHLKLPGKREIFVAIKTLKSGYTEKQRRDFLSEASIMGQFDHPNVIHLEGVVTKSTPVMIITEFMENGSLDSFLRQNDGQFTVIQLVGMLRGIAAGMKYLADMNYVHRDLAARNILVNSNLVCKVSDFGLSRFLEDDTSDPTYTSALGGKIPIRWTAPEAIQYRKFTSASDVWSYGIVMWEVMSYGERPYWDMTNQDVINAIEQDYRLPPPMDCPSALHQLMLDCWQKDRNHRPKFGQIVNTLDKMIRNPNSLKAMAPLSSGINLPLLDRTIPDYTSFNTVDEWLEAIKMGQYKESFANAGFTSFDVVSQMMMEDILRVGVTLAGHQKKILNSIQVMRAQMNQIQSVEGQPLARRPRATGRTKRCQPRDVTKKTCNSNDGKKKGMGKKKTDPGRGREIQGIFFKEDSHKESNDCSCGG

[9] = target: Receptor tyrosine-protein kinase erbB-2 (Homo sapiens, UniProt P04626); assay: Inhibition of recombinant human His-tagged cytoplasmic ERBB2 expressed in baculovirus expression system by Z'-LYTE assay
Sequence of Receptor tyrosine-protein kinase erbB-2 (P04626 whole entry, the tested form may be a part): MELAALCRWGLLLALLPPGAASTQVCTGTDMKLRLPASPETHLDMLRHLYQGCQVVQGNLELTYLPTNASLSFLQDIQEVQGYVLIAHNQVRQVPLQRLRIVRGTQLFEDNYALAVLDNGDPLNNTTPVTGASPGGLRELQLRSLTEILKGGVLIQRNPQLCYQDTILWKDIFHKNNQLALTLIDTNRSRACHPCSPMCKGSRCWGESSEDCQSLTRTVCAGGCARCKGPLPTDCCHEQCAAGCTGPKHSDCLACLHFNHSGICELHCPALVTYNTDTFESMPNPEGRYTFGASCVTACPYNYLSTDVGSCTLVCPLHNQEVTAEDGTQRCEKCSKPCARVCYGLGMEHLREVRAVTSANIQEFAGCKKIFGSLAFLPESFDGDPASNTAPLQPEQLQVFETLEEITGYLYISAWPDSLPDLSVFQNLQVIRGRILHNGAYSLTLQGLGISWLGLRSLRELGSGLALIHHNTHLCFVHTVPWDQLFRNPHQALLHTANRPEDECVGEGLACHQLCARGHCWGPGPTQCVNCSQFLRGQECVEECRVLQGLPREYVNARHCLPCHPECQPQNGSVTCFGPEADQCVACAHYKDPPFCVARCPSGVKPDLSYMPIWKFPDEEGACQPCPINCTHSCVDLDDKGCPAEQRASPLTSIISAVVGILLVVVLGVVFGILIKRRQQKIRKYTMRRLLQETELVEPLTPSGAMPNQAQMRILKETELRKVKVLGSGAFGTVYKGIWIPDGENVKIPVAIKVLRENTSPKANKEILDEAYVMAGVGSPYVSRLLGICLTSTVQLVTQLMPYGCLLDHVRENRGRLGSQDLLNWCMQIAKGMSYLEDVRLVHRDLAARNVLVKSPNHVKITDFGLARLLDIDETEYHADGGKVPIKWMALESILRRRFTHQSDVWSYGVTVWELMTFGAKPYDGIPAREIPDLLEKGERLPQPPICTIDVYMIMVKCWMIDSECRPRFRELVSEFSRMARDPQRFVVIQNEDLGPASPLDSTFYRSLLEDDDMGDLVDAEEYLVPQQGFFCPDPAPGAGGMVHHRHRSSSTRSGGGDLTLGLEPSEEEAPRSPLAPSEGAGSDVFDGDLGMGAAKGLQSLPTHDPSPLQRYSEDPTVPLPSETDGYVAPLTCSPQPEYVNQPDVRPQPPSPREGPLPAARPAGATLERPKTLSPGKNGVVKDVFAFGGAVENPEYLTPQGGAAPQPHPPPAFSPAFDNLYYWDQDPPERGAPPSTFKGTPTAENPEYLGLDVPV

Insulin receptor = Insulin receptor (Homo sapiens, UniProt P06213); assay: Inhibition of recombinant human GST-tagged cytoplasmic INSR (1011 to 1382 residues) expressed in baculovirus expression system by Z'-LYTE assay
Sequence of Insulin receptor (P06213 28-758 limits assumed): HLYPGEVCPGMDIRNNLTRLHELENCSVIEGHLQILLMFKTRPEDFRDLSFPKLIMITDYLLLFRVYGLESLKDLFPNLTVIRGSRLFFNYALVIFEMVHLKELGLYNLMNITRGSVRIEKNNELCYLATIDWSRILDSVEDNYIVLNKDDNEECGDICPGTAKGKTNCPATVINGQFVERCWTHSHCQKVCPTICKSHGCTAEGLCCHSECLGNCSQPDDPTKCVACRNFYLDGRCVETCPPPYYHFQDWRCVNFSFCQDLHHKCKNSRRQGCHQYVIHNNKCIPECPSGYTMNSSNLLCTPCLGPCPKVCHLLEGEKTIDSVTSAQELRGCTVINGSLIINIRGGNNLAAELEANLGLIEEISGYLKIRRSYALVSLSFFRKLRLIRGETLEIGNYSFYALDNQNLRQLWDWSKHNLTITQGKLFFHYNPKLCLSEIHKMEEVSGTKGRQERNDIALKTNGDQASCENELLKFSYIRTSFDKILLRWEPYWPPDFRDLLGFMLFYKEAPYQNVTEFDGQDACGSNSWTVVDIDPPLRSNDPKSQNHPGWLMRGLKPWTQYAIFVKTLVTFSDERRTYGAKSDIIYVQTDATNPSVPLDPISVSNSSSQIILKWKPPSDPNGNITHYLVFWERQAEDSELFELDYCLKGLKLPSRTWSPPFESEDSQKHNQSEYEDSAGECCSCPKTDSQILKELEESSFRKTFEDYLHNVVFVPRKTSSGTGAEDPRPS
Sequence of Insulin receptor (P06213 763-1382 limits assumed): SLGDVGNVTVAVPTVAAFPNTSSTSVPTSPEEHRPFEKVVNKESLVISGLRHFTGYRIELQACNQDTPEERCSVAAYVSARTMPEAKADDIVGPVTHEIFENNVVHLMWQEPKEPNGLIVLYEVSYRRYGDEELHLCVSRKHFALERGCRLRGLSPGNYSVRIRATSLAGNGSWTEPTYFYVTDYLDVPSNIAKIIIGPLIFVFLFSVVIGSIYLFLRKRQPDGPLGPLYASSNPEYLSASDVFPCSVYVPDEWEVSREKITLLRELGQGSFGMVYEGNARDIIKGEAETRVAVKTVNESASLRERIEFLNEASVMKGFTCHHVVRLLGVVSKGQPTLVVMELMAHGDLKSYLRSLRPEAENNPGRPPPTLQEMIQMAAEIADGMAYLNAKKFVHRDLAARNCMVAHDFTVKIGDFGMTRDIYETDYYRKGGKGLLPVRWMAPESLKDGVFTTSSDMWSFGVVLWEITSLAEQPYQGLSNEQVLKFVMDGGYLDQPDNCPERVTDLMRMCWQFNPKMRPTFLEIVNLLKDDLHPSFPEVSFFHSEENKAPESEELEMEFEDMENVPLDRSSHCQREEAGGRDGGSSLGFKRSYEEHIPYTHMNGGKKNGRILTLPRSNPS

[10] = target: RAC-beta serine/threonine-protein kinase (Homo sapiens, UniProt P31751); assay: Inhibition of full-length recombinant human His-tagged AKT2 expressed in baculovirus expression system by Z'-LYTE assay
Sequence of RAC-beta serine/threonine-protein kinase (P31751 whole entry): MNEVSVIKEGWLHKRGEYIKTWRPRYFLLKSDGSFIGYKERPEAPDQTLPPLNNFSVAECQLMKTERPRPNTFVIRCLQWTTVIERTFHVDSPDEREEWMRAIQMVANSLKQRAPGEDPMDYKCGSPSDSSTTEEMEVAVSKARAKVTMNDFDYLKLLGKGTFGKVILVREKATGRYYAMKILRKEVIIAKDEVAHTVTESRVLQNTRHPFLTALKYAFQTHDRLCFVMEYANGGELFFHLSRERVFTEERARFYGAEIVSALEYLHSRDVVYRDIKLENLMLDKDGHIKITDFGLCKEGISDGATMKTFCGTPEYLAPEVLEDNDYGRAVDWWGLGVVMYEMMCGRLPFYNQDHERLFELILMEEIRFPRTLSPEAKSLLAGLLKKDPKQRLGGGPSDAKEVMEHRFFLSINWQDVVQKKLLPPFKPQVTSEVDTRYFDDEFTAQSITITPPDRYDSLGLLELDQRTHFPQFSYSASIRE

[11] = target: Tyrosine-protein kinase ABL1 (Homo sapiens, UniProt P00519); assay: Inhibition of full-length human His-tagged ABL1 expressed in baculovirus expression system by Z'-LYTE assay

Structure (SMILES)	IC50 [1] [nM]	IC50 (Misshapen-like kinase 1) [nM]	IC50 [2] [µM]	IC50 [3] [nM]	IC50 [4] [nM]	IC50 [5] [nM]	IC50 [6] [nM]	IC50 [7] [nM]	IC50 [8] [nM]	IC50 (Ephrin type-B receptor 2) [nM]	IC50 [9] [µM]	IC50 (Insulin receptor) [µM]	IC50 [10] [nM]	IC50 [11] [nM]
Cn1cc(-c2cnc3c(-c4csc(C(=O)NCC(F)(F)F)c4)cnn3c2)cn1	6	22	18	63	780	170	810	< 10	560	36	> 100	> 100	> 100000	< 10
Cc1sc(C(=O)N[C@@H]2[C@H](N)CCCC2(F)F)cc1-c1cnn2cc(Cl)cnc12	5	140	1.2	810	2300	17000	> 100000	26	1100	3800	> 100	> 100	2500	9100
O=C(NCC(F)(F)F)c1cc(-c2cnn3cc(-c4ccc(OCCN5CCCCC5)cc4)cnc23)cs1	1	13	12	27	360	70	2700	< 10	430	< 10	35	55	23000	< 10
Cn1cc(-c2cnc3c(-c4csc(C(=O)N[C@@H]5CCCC[C@@H]5N)c4)cnn3c2)cn1 (racemic)	≤ 0.5	6	0.23	200	17	11	690	1.9	52	2.9	1	> 10	430	1.3
